According to patent US10265342B2, “Sustained-release composition, method for fabricating, and use thereof” (NATIONAL TSING HUA UNIVERSITY, priority 2017, dated 2019):

Assays:
[1] = test system: hindlimb ischemia (ligation of femoral artery); experiment: mouse hindlimb ischemia model; type: in vivo, BALB/c mice; settings: intramuscular injection into quadriceps muscle
Experimental: As mentioned above, the sustained-release composition can be applied for promoting angiogenesis in ischemic tissues. Thus, the effect of such the use will be further evaluated through a mouse hindlimb ischemia model and utilizes the sustained-release composition of the 1st embodiment of the present disclosure. In the present disclosure, all animal experimentation processes are performed according to an animal care and use guideline promulgated by Council of Agriculture, Executive Yuan, R.O.C. (Taiwan). In particular, BALB/c mice are served as a platform for developing the animal model. In the beginning, for each of the mice, 2 L/min of oxygen and 4% inhaled isoflurane are provided into an anesthesia box to introduce a general anesthesia in the mouse under room temperature, and the mouse is intubated and supplied by 3% isoflurane continuously. After a medial thigh area of the mouse is cut by a scalpel, the mouse is subjected by ligation of upper end and lower end of femoral artery to simulate hindlimb ischemia.
Subsequently, an intramuscular injection is performed into the quadriceps muscle adjacent to the proximal ligation site. The abovementioned mice can be divided into four groups according to the treatment. In details, the mice of Group 1 are only injected with physiological saline. […] The mice of Group 4 are injected with the sustained-release composition of the 1st embodiment. […]

[2] = cited from earlier work

C=CCSSSCC=C [free diallyl trisulfide, diallyl trisulfide]
hindlimb kept or lost after fourteen days [1]: lose its hindlimb | muscle atrophy of the hindlimb ([1]; fourteen days): slighter than that of the mice of Group 1 and Group 3 | half-life in aqueous solution [2]: around 15 minutes
